Data: patent US12310933B2, “Treatment of demyelinating disorders” (The University of Chicago, priority 2013, dated 2025)

Legend:
[1] = tested on: SJL mice with remitting/relapsing EAE; experiment: Remitting/relapsing EAE (PLP139-151), clinical scores; format: in vivo, mouse
[2] = tested on: cultured rat cerebellar slices; experiment: Myelin basic protein and toluidine blue staining of ex vivo cultured cerebellar slices treated with IFN-γ; format: cell-based; conditions: seven days
Experimental: Briefly, cerebellar sections were prepared from 6 day old Sprague-Dawley rat pups. […] Two to three sections were collected per well and grown in growth media with Fungizone. […] Sections were then stained for myelin-basic protein (A-E) and toluidine blue (F-H), used to visualize myelin and neuronal cytoarchitecture.

[3] = tested on: C57BL/6J mice with experimental autoimmune encephalitis (EAE); experiment: Chronic EAE (MOG35-55), clinical scores and symptom onset; format: in vivo, mouse
[4] = tested on: C57BL/6J mice with chronic EAE; experiment: Guanabenz/interferon co-administration in chronic EAE, onset of clinical symptoms; format: in vivo, mouse; conditions: for onset of clinical symptoms: daily from post immunization day 7
Excerpt: Eight week old C57BL/6J female mice were immunized with MOG35-55/CFA to induce chronic EAE. […] Mice were scored daily for clinical symptoms (0=healthy, 1=flaccid tail, 2=ataxia and/or paresis of hindlimbs, 3=paralysis of hindlimbs and/or paresis of forelimbs, 4=tetraparalysis, 5=moribund or death). […] Onset of clinical symptoms began at approximately day 12 in saline-treated mice and at approximately day 13 in mice treated with interferon alone. […] While preferred embodiments of the present invention have been shown and described herein, it will be obvious to those skilled in the art that such embodiments are provided by way of example only. Numerous variations, changes, and substitutions will now occur to those skilled in the art without departing from the invention. It should be understood that various alternatives to the embodiments of the invention described herein may be employed in practicing the invention. It is intended that the following claims define the scope of the invention and that methods and structures within the scope of these claims and their equivalents be covered thereby.

[5] = tested on: differentiating rat oligodendrocyte precursor cells (drOPCs); experiment: TUNEL assay for IFN-γ induced apoptosis; format: cell-based
Experimental: Cells were isolated as described previously and plated in chamber slides at 20,000 cells/chamber. Cells were then treated with the same IFN-γ and guanabenz protocol as described previously, then subjected to a TUNEL assay. […] FIG. 3B illustrates the quantitation of the experiment in FIG. 3a. […] Error bars represent mean±SEM for an N=3/group (*p<0.05, **p<0.005, ***p<0.0005)

[6] = tested on: differentiating rat oligodendrocyte precursor cells (drOPCs); experiment: FDA/PI (fluorescein-diacetate/propidium iodide) live/dead cell viability assay, IFN-γ challenge; format: cell-based
Excerpt: Interferon-γ is an inflammatory cytokine that is thought to contribute to multiple sclerosis exacerbations, therefore, treatment of cultured cells of the oligodendrocyte lineage with interferon-γ provides a useful cellular model of MS-related inflammation. drOPCs were isolated and purified to >95% homogeneity from 6-7 day old Sprague-Dawley rat cortices by immunopanning as previously described (Chan et al. 2004 Neuron 43:2; 183-191). Briefly, rat cortices were extracted, diced, and digested with papain at 37° C. Cells were then triturated and resuspended in panning buffer containing insulin, then sequentially immunopanned at room temperature on three plates containing Ran-2, GalC, and O4 antibodies from hybridomal supernatant. The remaining O4^+GalC^− OPCs were removed from the plates with trypsin, resuspended in growth media, and seeded at 37° C. onto pDL-coated flasks to facilitate proliferation. Once sufficient numbers were reached, OPCs were split, plated in differentiation media at 200,000 cells/well, and allowed to differentiate for 24 hours. […] Following 48 hours of treatment, media was removed and the cells were incubated in FDA/PI (fluorescein-diacetate/propidium iodide) for 3 minutes, rinsed with 1×PBS, and imaged for live/dead cell quantification. In living cells, non-fluorescent FDA is converted into fluorescein, giving off a bright green fluorescence. PI is membrane impermeable and therefore excluded from live cells. Therefore, green cells indicate viable cells and red cells indicate non-viable cells. […] Treatment with 200 U/ml IFN-γ alone reduced the number of green cells and increased the number of red cells (C). […] FIG. 2B illustrates the quantitation of the experiment in FIG. 2a. […] Treatment with IFN-γ alone caused a roughly 40-50% decrease in cell survival. […] Data is presented as the mean+/−SEM for an N=3/group. (*p<0.05, **p<0.005)

[7] = 5.0 μM guanabenz co-treatment with IFN-γ
[8] = interferon-beta 5,000 U/day/mouse alone

With `N=C(N)N/N=C/c1c(Cl)cccc1Cl` [guanabenz] the “average decrease in relapse severity” value ([1]; 8 mg/kg IP daily from beginning of remission) was “about 50%”, the “average decrease in relapse severity” value ([1]; 16 mg/kg IP daily from onset of remission) was “about 40%” and the “symptom severity during the remission phase, compared to vehicle” value ([1]; 16 mg/kg/day IP) was “greater decrease in symptom severity during the remission phase”. The “myelin fiber and axonal structure” value ([2]; 2.5 μM guanabenz + 100 U/ml IFN-γ) was “restored intact, long myelin fiber and axonal structure”, the “myelin fiber and axonal structure” value ([2]; 5.0 μM guanabenz + 100 U/ml IFN-γ) was “restored intact, long myelin fiber and axonal structure” and the “myelin fiber and axonal structure” value ([2]; 10.0 μM guanabenz + 100 U/ml IFN-γ) was “restored intact, long myelin fiber and axonal structure”. For the same molecule, the “clinical score by days post symptom onset” value ([3]; 4 mg/kg/day) was “Neither 4 mg/kg/day nor 16 mg/kg/day caused a significant reduction in clinical score”, the average symptom onset ([3]; 4 mg/kg/day IP from PID 7) was 19 days and the “clinical score by days post symptom onset (symptom severity)” value ([3]; 8 mg/kg/day) was “significantly reduced symptom severity”. For the same molecule, the average symptom onset ([3]; 8 mg/kg/day IP from PID 7) was “about 22 days”, the “clinical score by days post symptom onset” value ([3]; 16 mg/kg/day) was “Neither 4 mg/kg/day nor 16 mg/kg/day caused a significant reduction in clinical score” and the average symptom onset ([3]; 16 mg/kg/day IP from PID 7) was “about 25 days”. The “delay in symptom onset” value ([3]; all guanabenz doses (4-16 mg/kg/day), IP daily from PID 7) was “significant delay in symptom onset”, the “onset of clinical symptoms” value ([4]; guanabenz 8 mg/kg alone) was about 18 days and the “IFN-γ induced apoptosis (TUNEL, photomicrographs)” value [5, 7] was “reduced IFN-γ induced apoptosis”. The “reduction of IFN-γ induced apoptosis compared to IFN-γ alone” value [5, 7] was “about 87.5%”, the “cell viability (green/red cells, FDA/PI)” value ([6]; 1.25 μM guanabenz + 200 U/ml IFN-γ, 48 hours) was “partially restored viability” and the “increase in cell survival compared to IFN-γ alone” value ([6]; 1.25 μM guanabenz + IFN-γ) was “roughly 25%”. For the same molecule, the “cell viability (green/red cells, FDA/PI)” value ([6]; 2.5 μM guanabenz + 200 U/ml IFN-γ, 48 hours) was “partially restored viability”, the “increase in cell survival compared to IFN-γ alone” value ([6]; 2.5 μM guanabenz + IFN-γ) was “roughly 25%” and the “cell survival (FIG. 2B)” value ([6]; 5.0 μM guanabenz + IFN-γ) was “increased survival almost to control levels”. The “cell viability (green and red cells, FDA/PI)” value ([6]; 5.0 μM guanabenz alone, no IFN-γ, 48 hours) was “does not impact cell viability” and the “percent survival (FIG. 2B)” value ([6]; guanabenz alone vs untreated control) was “comparable percent survival”.

B1: IFN-γ: inflammatory cytokine used to challenge cultured oligodendrocyte lineage cells and cerebellar slices (protein, UniProt P01579 24-161, looked up)
Interferon gamma: QDPYVKEAENLKKYFNAGHSDVADNGTLFLGILKNWKEESDRKIMQSQIVSFYFKLFKNFKDDQSIQKSVETIKEDMNVKFFNSNKKKRDDFEKLTNYSVTDLNVQRKAIHELIQVMAELSPAAKTGKRKRSQMLFRG
In the case of B1, the “increase in apoptosis compared to control cells” value ([5]; IFN-γ alone) is reported as 2-3 fold and the “decrease in cell survival” value ([6]; IFN-γ alone, 200 U/ml, 48 hours) is reported as 40-50%.

B2: interferon-beta (protein, UniProt P01575 22-182, looked up)
Interferon beta: INYKQLQLQERTNIRKCQELLEQLNGKINLTYRADFKIPMEMTEKMQKSYTAFAIQEMLQNVFLVFRNNFSSTGWNETIVVRLLDELHQQTVFLKTVLEEKQEERLTWEMSSTALHLKSYYWRVQRYLKLMKYNSYAWMVVRAEIFRNFLIIRRLTRNFQN
For B2, the “delay of onset of clinical symptoms” value [4, 8] was “did not significantly delay onset of clinical symptoms” and the “onset of clinical symptoms” value [4, 8] was about 13 days.
